Experimental data: ChEMBL document CHEMBL1149359, “Total synthesis and biological evaluation of ustiloxin natural products and two analogs” (Bioorg Med Chem Lett, 2006)

What was measured:
Tubulin = experiment: Inhibition of tubulin polymerization; assay type: protein-complex assay, Homo sapiens
CA46 = experiment: Cytotoxicity against human CA46 cell line; assay type: functional, cell-based

| SMILES | IC50 (Tubulin) [µM] | IC50 (CA46) [nM] |
| --- | --- | --- |
| CC[C@@H](C)[C@@H]1NC(=O)[C@@H](NC)[C@H](O)c2ccc(O)c(c2)O[C@](C)(CC)[C@@H](C(=O)NCC(=O)O)NC1=O | 4.8 |  |
| CC[C@@]1(C)Oc2cc(ccc2OC)[C@@H](O)[C@H](NC)C(=O)N[C@@H](C(C)C)C(=O)N[C@@H]1C(=O)NCC(=O)O | > 40 |  |
| CC[C@H](C)[C@@H]([C@@H](CC(=O)N1CCC[C@H]1[C@H](OC)[C@@H](C)C(=O)N[C@@H](Cc1ccccc1)c1nccs1)OC)N(C)C(=O)[C@@H](NC(=O)[C@H](C(C)C)N(C)C)C(C)C [DOLASTATIN-10] |  | 30 |
| CC[C@@]1(C)Oc2cc(c([S+]([O-])C[C@@H](O)C[C@H](N)C(=O)O)cc2O)[C@@H](O)[C@H](NC)C(=O)N[C@@H](C(C)C)C(=O)N[C@@H]1C(=O)NCC(=O)O (some centres not stated) [USTILOXIN A] | 1.1 | 2500 |
| CC[C@@]1(C)Oc2cc(ccc2O)[C@@H](O)[C@H](NC)C(=O)N[C@@H](C(C)C)C(=O)N[C@@H]1C(=O)NCC(=O)O [USTILOXIN D] | 1.5 |  |
| CC[C@@]1(C)Oc2cc(ccc2O)[C@@H](O)[C@H](NC)C(=O)N[C@@H](C)C(=O)N[C@@H]1C(=O)NCC(=O)O [USTILOXIN F] | 8.2 |  |
